The experiment has as its target myrMA (myristoylated M-PMV matrix protein) (Mason-Pfizer monkey virus, UniProt P07567). The experiment in a line: 1H/[…] HSQC NMR titration. It is filed as binding.

This is an account of results in PMC3579217 (Journal of molecular biology, 2012).

By Kd is commonly meant the free concentration of one partner at which half of the binding sites on the other are occupied at equilibrium, for simple one-to-one binding.

Chain of myrMA (myristoylated M-PMV matrix protein) (P07567 2-118): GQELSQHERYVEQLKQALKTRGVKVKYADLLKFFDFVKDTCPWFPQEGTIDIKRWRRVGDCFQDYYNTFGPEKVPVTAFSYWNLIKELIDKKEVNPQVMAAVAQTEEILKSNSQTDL

In turn, `CCCCCCCC(=O)OC[C@H](COP(=O)(O)O[C@@H]1[C@H](O)[C@H](O)[C@@H](OP(=O)(O)O)[C@H](OP(=O)(O)O)[C@H]1O)OC(=O)CCCCCCC` [C8-PI(4,5)P2] showed an equilibrium dissociation constant (Kd) of 92.8 ± 7.5 µM.
